{"source": "patent US20250170153A1", "about": "“METHODS FOR THE TREATMENT OF ANXIETY DISORDER” (ANANDA SCIENTIFIC, INC., priority 2022, published 2025)", "key": {"[1]": {"test": "Chemical characteristics of composition A′, concentrated and diluted forms", "format": "physicochemical", "procedure": "Several tests were conducted to determine the chemical characteristics of composition A′, both in concentrated and diluted forms. […] All liquid nanodomain droplets range in size from 5 to 20 nm. The pH of both the concentrate and diluted formulations is between 6.0 and 7.5."}, "[2]": {"settings": "rat, 120 mg/kg dose; cited from earlier work"}}, "data": [{"smiles": "C=C(C)[C@@H]1CCC(C)=C[C@H]1c1c(O)cc(CCCCC)cc1O", "note": "[CBD, 2-(1R,6R)-3-methyl-6-prop-1-en-2-ylcyclohex-2-en-1-yl-5-pentylbenzene-1,3-diol]", "values": [{"measurement": "logP", "setting": "[1]", "result": 6}, {"measurement": "Association of CBD with formulation phases during storage", "setting": "[1]; both concentrated and diluted forms of composition A′", "result": "remained associated with the surfactant and lipid phases"}, {"measurement": "T1/2", "setting": "[2]", "result": "4 to 5", "unit": "h"}]}]}
